Assay results: article PMC4786417, “Ternatin and improved synthetic variants kill cancer cells by targeting the elongation factor-1A ternary complex” (eLife, 2015)

Assays:
[1] = test system: 50-kDa protein (eEF1A) in HEK293T cell lysates; experiment: Photo-affinity labeling of cell lysates with probe 5; type: binding; conditions: competitor 10 min before 5 (2 μM) 20 min, UV, TAMRA-azide click
Protocol: Lysates were prepared from HEK293T cells by washing a monolayer of cells once with ice-cold PBS and briefly freezing at –80°C. Lysis buffer (25 mM HEPES-KOH pH 7.3, 100 mM KOAc, 5 mM MgOAc2, 1 mM TCEP, 1 mM PMSF, Roche EDTA-free complete protease inhibitor) was added, and cells were detached with a cell scraper. Crude lysates were clarified by centrifugation (15 min at 14,000 rpm), protein was quantified by Bradford assay, and the protein concentration was brought to 1.5 mg/mL with lysis buffer. Lysates were processed for photo-labeling as described below. For samples treated with RNase A, RNase A (Roche) was added to lysates (10 mg/mL final concentration) and incubated for 20 min at RT.
Photo-labeling experiments were preformed essentially as described ([MacKinnon and Taunton, 2009]; [MacKinnon et al., 2007]). Reactions (100 μL) were treated with DMSO (1 μL) or competitor in DMSO as 100X stocks and incubated for 10 min at RT, then treated with photo-probe 5 and incubated for 20 min. Reactions were transferred to 96-well plates and irradiated with long-wave UV light (λmax = 355 nm, 1000 W, 90 s). […] Gels were scanned for TAMRA fluorescence (532 nm excitation laser, 568 nm emission measured with LPG filter) on a Typhoon FLA 9000 scanner (GE Life Sciences).

[2] = test system: translation initiation/elongation in HeLa cells; experiment: Ribosome/polysome profiles; type: cell-based; conditions: 4 (5 μM) or cycloheximide (100 μg/mL) 15 min, then harringtonine 2 μg/mL 20 min
Protocol: HeLa cells grown to 80% confluence in 10-cm dishes were treated with DMSO or 4 (5 μM) for 20 min (Figure 2c, left panel), or were first treated with DMSO, 4 (5 μM), or cycloheximide (CHX, 100 μg/mL, Sigma, St. Louis, MO) for 15 min, followed by harringtonine (2 μg/mL, LKT Laboratories, St. Paul, MN) for 20 min. Following treatment, dishes were placed on ice, media aspirated, and cells were washed once with ice-cold PBS. Cells were scraped into 400 μL lysis buffer (20 mM Tris-HCl pH 7.5, 150 mM NaCl, 5 mM MgCl2, 1 mM DTT, 1% Triton X-100, 100 μg/mL CHX). Lysates were incubated for 10 min on ice, then passed through a 26-G needle 5 times. Samples were clarified by centrifugation at 14,000 rpm for 10 min at 4°C. Lysates were applied to 10–50% sucrose gradients (prepared in 20 mM Tris-HCl pH 7.5, 150 mM NaCl, 5 mM MgCl2, 1 mM DTT, 100 μg/mL CHX), followed by centrifugation at 35,000 rpm for 3 hr in a SW41 rotor at 4°C. Ribosome/polysome profiles were obtained by flowing the gradient top to bottom through an in-line spectrometer (254 nm, EM-1 Econo UV Monitor, BioRad, Hercules, CA).

[3] = test system: HCT116 cells; experiment: HCT116 cell proliferation assay (alamarBlue, 72 hr); type: cell-based; conditions: read-out: effect on HCT116 cell proliferation (no effect up to)
Protocol: HCT116 cells (ATCC, Manassas, VA) were maintained in McCoy’s 5A media (Gibco, Grand Island, NY) supplemented with 10% fetal bovine serum (Axenia Biologix, Dixon, CA), 100 units/mL penicillin, and 100 ug/mL streptomycin (Gibco). Mutant HCT116 cells were obtained from Dominic Hoepfner ([Krastel et al., 2015]). HEK293T cells (ATCC) and HeLa cells (ATCC) were maintained in DMEM (Gibco) supplemented with 10% fetal bovine serum, 100 units/mL penicillin, and 100 μg/mL streptomycin. All other cell lines were obtained from the Cancer Cell Line Encyclopedia collection and were maintained as described ([Barretina et al., 2012]). All cell lines were tested for mycoplasma (Lonza, CH) before use and were SNP-typed to verify that their identity matched that of the originally procured sample. […]
Growing cells were briefly trypsinized and repeatedly pipetted to produce a homogenous cell suspension. […] Fluorescence intensity was measured hourly to determine the linear range for each assay (Ex 545 nm, Em 590 nm, Spectra Max M5, Molecular Devices, Sunnyvale, CA). Proliferation curves were generated by first normalizing fluorescence intensity in each well to the DMSO-treated plate average. Normalized fluorescence intensity was plotted in GraphPad Prism (GraphPad, La Jolla, CA), and IC50 values calculated from nonlinear regression curves. […]

[4] = test system: global protein synthesis in HCT116 cells; experiment: 35S-methionine incorporation; type: cell-based; conditions: 5 hr compound then 35S-Met 1 hr, autoradiography / scintillation counting after TCA precipitation (mean ± SEM, n = 3)
Protocol: HCT116 cells at 80% confluence in 12-well plates were incubated with compounds for 5 hr at 37°C. The cell culture media was replaced with methionine- and cysteine-free DMEM with the appropriate amount of compound. ^35S-methionine (PerkinElmer EasyTag, 40 μCi/well) was added and cells were incubated for 1 hr. Subsequently, media was aspirated and cells were washed twice with ice-cold phosphate-buffered saline (PBS). For samples analyzed by SDS-PAGE/autoradiography (Figure 2a), cells were lysed in buffer (PBS, 0.5% Triton X-100, Roche complete protease inhibitor cocktail, Roche, Indianapolis, IN) and protein content was normalized by Bradford assay. Dried gels were exposed to a storage phosphor screen (Amersham Biosciences, UK) overnight and scanned with a Typhoon imager (GE Life Sciences, Pittsburgh, PA). Bulk incorporation measurements (Figure 2b) were made by treating cells with cold 10% trichloroacetic acid (TCA, 0.5 mL) for 10 min. Precipitated monolayers were washed with 10% TCA (2 × 0.5 mL) and solubilized in 0.2 N NaOH (0.5 mL). Aliquots (100 μL) were diluted into liquid scintillation fluid and radioactivity was quantified by scintillation counting.

[5] = test system: adipogenesis; conditions: ref Shimokawa et al., 2008b; cited from earlier work
Protocol: Ternatin (1, Figure 1a) is an N-methylated cyclic heptapeptide that inhibits adipogenesis at low nanomolar concentrations (EC50 20 nM) and becomes cytotoxic at ten-fold higher concentrations ([Shimokawa et al., 2008a]). […] Motivating the current study, ternatin's molecular target and mechanism of action were completely unknown. While searching for cyclic peptides that, like ternatin, incorporate a β-hydroxy leucine, we found a paten ...

Compound: CO[C@H]1\C=C/C=C\C=C/C[C@H](OC(=O)[C@@H](C)NC(=O)C2CCCCC2)[C@H](C)[C@@H](O)/C(C)=C\CCc2cc(O)cc(c2O)NC(=O)C1 [ansatrienin B]
- competition of labeling of the 50-kDa band by probe 5 [1]: abolished

Compound: C[C@@H]1C[C@@H]([C@H](O)CC2CC(=O)NC(=O)C2)C(=O)[C@@H](C)C1 [cycloheximide]
- harringtonine-induced polysome depletion [2]: completely blocked

Compound: didemnin B
- competition of labeling of the 50-kDa band by probe 5 [1]: abolished

Compound: ternatin-4-Ala [Compound 2]
- IC50 [3]: > 10 µM
- effect on global protein synthesis (35S-methionine labeling) [4]: no effect
- biological activity (adipogenesis assay) [5]: abolished biological activity
